Measurements as given in patent US20250189532A1, “1,6-DIYNE COMPOUND, ITS PREPARATION METHOD, AND PRODUCTS OBTAINED USING 1,6-DIYNE COMPOUND AS RAW MATERIAL AND THEIR APPLICATIONS” (Fujian Institute of Research on the Structure of Matter, …, priority 2022, published 2025).

What was measured:
Type in all cases: cell-based
[1] = test system: L929 cells (mouse fibroblasts); assay: Fluorescent labeling of L292/L929 cells by IM probes (confocal imaging); settings: 30 minutes in the dark
Procedure: Cell line: L929 cells (mouse fibroblasts).
Cell culture: Cells are cultured in a CO2 incubator (37° C., 5% CO2) with DMEM medium (penicillin (100 U/mL) and streptomycin (100 μg/mL)).
(§1) Cell imaging experiment: Cells are cultured on 15 mm grade bottom cell culture dishes. Before labeling the cells with the probe, the culture medium is removed, and the cells are washed twice with Hank's buffer solution to remove the remaining culture medium. Then, 200 μL of probe IM-1 (10 μM) is added to the culture dish, and the cells are incubated in the dark for 30 minutes. The cells are washed twice with Hank's buffer solution to remove any remaining probe, and then 1 mL of Hank's solution is added to the culture dish. The cells are observed under a laser confocal microscope with a 100× objective. The excitation wavelength is 543 nm, and the emission wavelength is 550-600 nm.
as §1, with “IM-2 (5” for “IM-1 (10”
as §1, with “IM-3 (2” for “IM-1 (10”, “The cells are observed under a laser confocal microscope with a 100× objective. The excitation wavelength is 543 nm, and the emission wavelength is 550-600 nm.” left out

[2] = test system: respiratory chain; assay: Cell silencing experiment 1: cytc-290 siRNA, live cell imaging with MP-1
Procedure: Cells are cultured in imaging culture dishes for 6 h and then treated with cytc-290 (designed silent siRNA) or nontargeting RNA. After a certain period of action, live cell imaging is performed under a confocal laser scanning microscope. After 12 hours of ctyc-290 treatment, Hoechst 33342 and MTG staining are good, but about 10% of the cells could not be labeled by MP-1. About 30% of the cells could not be labeled by MP-1 after 18 hours of treatment with ctyc-290. As shown in FIGS. 8A-8E, in contrast, the staining effect of MP-1 in the control group using non-targeted RNA is still good.

[3] = test system: respiratory chain; assay: Cell silencing experiment 2: cytc-436 siRNA, live cell imaging with MP-1
Procedure: The cells are cultured in the imaging culture dish for 6 h, and then treated with cytc-436 (designed silent siRNA) or non-targeting RNA for a certain period of time, and then live cell imaging is performed under a confocal laser scanning microscope. After 6 hours of ctyc-436 treatment, Hoechst 33342 and MTG staining are good, but about 5% of the cells could not be labeled by MP-1. In contrast, the staining effect of MP-1 in the control group using non-targeting RNA is still good.

[4] = after 12 hours of cytc-290 treatment
[5] = after 6 hours of cytc-436 treatment

Structure (SMILES): CCCCCCCCCCCCCOc1ccc(C2=NCc3c2cc2ccc(Cl)cc2c3-c2ccccc2)cc1 [IM-3]
- organelles fluorescently labelled by the probe ([1]; probe 2 μM, excitation 488 nm, emission 600-650 nm): labels the lysosomes and lysosomal autolysosomes in the cells

Structure (SMILES): c1ccc(C2=NCc3cc4ccccc4cc32)cc1 [IM-1]
- organelles fluorescently labelled by the probe ([1]; probe 10 μM, excitation 543 nm, emission 550-600 nm): labels the lysosomes and lysosomal autolysosomes in the cells

Structure (SMILES): C#CCN(C(C#Cc1ccccc1)c1ccccc1)S(=O)(=O)c1ccccc1 (stereo not shown) [PA-1]
- cells that could not be labeled by MP-1 [2, 4]: about 10%
- cells that could not be labeled by MP-1 ([2]; after 18 hours of cytc-290 treatment): About 30%
- staining effect in control group ([2]; control group using non-targeted RNA): still good
- cells that could not be labeled by MP-1 [3, 5]: about 5%
- staining effect in control group ([3]; control group using non-targeting RNA): still good

Structure (SMILES): CCOc1ccc(-c2nc3ccc(-c4nc5ccc(N6CCN(C)CC6)cc5[nH]4)cc3[nH]2)cc1 [Hoechst 33342, reference compound]
- staining [2, 4]: good
- staining [3, 5]: good

Structure (SMILES): CCCCCCCCCCCCCOc1ccc(C2=NCc3c2cc2ccc(Cl)cc2c3-c2ccccc2)cc1 [IM-2]
- organelles fluorescently labelled by the probe ([1]; probe 5 μM, excitation 543 nm, emission 550-600 nm): labels the lysosomes and lysosomal autolysosomes in the cells
